Tested on: E. coli O157:H7
Assay: Solid-interface AMBR biosensor measurement of bacterial growth in 384 well plate
Type: cell-based
Settings: antibiotic above the MIC in the surrounding media, 0.5 μg/ml gentamicin
Source text: In previous AMBR applications at air-water and/or oil-water interfaces, the rotation period of the sensor slows down in response to bacterial growth; however, on solid interfaces there is an additional “dip” in the beginning of the data. Typical results for measuring bacterial growth, using the solid interface AMBR method are shown in FIG. 11, where the initial speeding up and then slowing down can be seen. […] This is true since the dip (or the slowing down) was not seen in wells with the same amount of bacteria, but that lacked nutrients (performed in PBS buffer), or contained antibiotics above the minimum inhibition concentrations.
Laboratory measurements have established that the speeding up happens with motile and non-motile, gram-negative and gram-positive cells, and with rod-like and coccal bacteria. […]
Anti-E. coli O157 functionalized, 2.8 μm diameter magnetic particles (20 μl, Invitrogen 710-03) were mixed with bacteria diluted to 10^4 CFU/ml (0.9 ml), and allowed to incubate (10 min at 37° C.) with end-over-end agitation. […] For colony counting, the samples were diluted appropriately, plated on a MH plate and the colonies were counted 18 hours later to obtain accurate bacterial concentrations and magnetic separation capture efficiencies. […]

## gentamicin
  change in rotational period of AMBR biosensor (bacterial growth response): no change in rotational period

Reference: patent publication US12480846B2, “Multi-mode separation for target detection and cell growth monitoring” (THE REGENTS OF THE UNIVERSITY OF MICHIGAN, priority 2012, dated 2025)
